Laboratory results reported in patent publication US8398759B2, “Environmental friendly anti-microbial adhesion agents for anti-fouling paints and anti-fouling paints containing them” (Biopaint S.R.L., priority 2008, dated 2013).

Legend:
Type in all cases: cell-based
[1] = system: mixed populations of biofilmogenic sea bacteria (M1, T1-T5, F1); assay: Bio-film formation (OD570) in microplates painted with supplemented anti-fouling paints; conditions: 50 g of agent per kg of paint (E50 FIG. 8; V50 FIG. 9); M1, T1 and T5 populations
Procedure: (§1) The effect of the anti-microbial-adhesion agent of the invention on microbial adhesion and growth has been estimated by using mixed populations of biofilmogenic sea bacteria isolated from the Tyrrhenian Sea (M1), the Adriatic Sea (T1-T5) and an exhausted aquarium filter (F1).
The effectiveness of paints supplemented with the anti-microbial-adhesion agents of the invention in inhibiting the adherent growth of the sea bacteria used in the previous tests was assessed. The formation of a bio-film (OD570) was estimated by the microplate (24 wells) spectrophotometric assay described above. […]
Parallel assays were carried out by using microplates painted with a commercial anti-fouling product (Veneziani Raffaello bianca racing) and non-painted microplates. […]
The paints to be tested were applied only onto the side surface (corresponding to approximately 8.8 cm^2), avoiding to paint the bottom of the wells. […] The plates were inoculated with a cell suspension at an optical density (measured at 600 nm) of 0.5 absorbance units, kept under static incubation, in the dark, for 5 days at 20° C. 5 Days later, the microplates were drained and the growth of the plankton population was determined by a spectrophotometric assessment of the increase in absorbance of the incubation medium. The detection and quantification of a microbial biofilm formation was performed by a spectrophotometric assay. […]

[2] = system: plankton growth of sea bacteria populations M1, T1 and T5; assay: Plankton growth (OD600) in microplates painted with vanillin-supplemented paints; conditions: paints V50, V100, V200; three populations (FIG. 10)
Procedure: The paints to be tested were applied only onto the side surface (corresponding to approximately 8.8 cm^2), avoiding to paint the bottom of the wells. The plates, after being painted, were maintained for 2 days at 20° C., in a dry and ventilated environment, before being used for the adhesion assay. The plates were inoculated with a cell suspension at an optical density (measured at 600 nm) of 0.5 absorbance units, kept under static incubation, in the dark, for 5 days at 20° C. 5 Days later, the microplates were drained and the growth of the plankton population was determined by a spectrophotometric assessment of the increase in absorbance of the incubation medium. The detection and quantification of a microbial biofilm formation was performed by a spectrophotometric assay. The biocide release rate under static conditions was calculated by measuring, through high performance liquid chromatography (HPLC), the increases in time of the biocide concentration in the liquid medium. […]
In FIG. 10, the increases in absorbance (OD600) are expressed as relative values compared to non-treated samples (not painted).

[3] = system: mixed populations of biofilmogenic sea bacteria (M1, T1-T5, F1); assay: Bio-film formation (crystal violet, OD570) in 24-well microplates, compounds in the free form
Procedure: as §1
The tests with the compounds in the free form were carried out by using: • eugenol in a concentration in the range from 0.5 to 4 g/l, solubilized in an organic solvent (methanol); • vanillin in a concentration in the range from 0.1 to 5 g/l; • benzaldehyde derivatives in a concentration of 2 g/l.
The formation of the bio-film was assessed, in an indirect way, by measuring the amount of crystal violet retained by the cells grown adherently.
The tests were performed in 24-well microplates inoculated with sea bacteria from bio-films of cultures grown under static conditions for 2 weeks. The effect of the compounds was determined by culturing the microorganisms (starting OD600=0.5) in synthetic sea water (Tropic Marin Sea Salt; 33 g/l) supplemented with yeast extract (3 g/l) and fungal peptone (5 g/l). After the inoculation, the plates were incubated at 20° C. for 5 days before assessing the formation of a bio-film (OD570) and the growth of plankton (OD600). The bio-film was estimated after staining with crystal violet.
The inhibition of adhesion experiments were carried out in 24-well microplates by using eugenol concentrations comprised between 0.5 and 4 g/l. The eugenol stock solution was obtained by melting 2 ml of the compound into 3 ml of methanol and 5 ml of a 10 M NaOH solution. The control plates were set up by adding the same volume of hydroalcoholic solution without eugenol. The results shown in FIG. 1 were obtained by using the M1 population. The tests were subsequently repeated with all 7 populations, using an eugenol concentration of 0.5 g/l.

| Structure (SMILES) | reduced adherent growth of sea bacteria compared to the commercial product [1] | effect of vanillin release on plankton growth (OD600 relative to non-painted samples) [2] | persistence of the inhibition effect on adhesion ([3]; M1 population, 10 days of incubation (FIG. 4)) | concentration at which adhesion of microorganisms to solid surfaces is inhibited ([3]; vanillin tested at 0.1 to 5 g/l, free form, T1, M1, T2, T1-T5, F1 populations (FIG. 3a-5)) | reduction in the bio-film formation ([3]; eugenol 0.5 g/l, free form, 5 days at 20° C., all populations except T3 and F1 (FIG. 2)) | inhibition at 500 µg/mL ([3]; eugenol 0.5 g/l, free form, F1 population (FIG. 2)) [%] | inhibition at 500 µg/mL ([3]; eugenol 0.5 g/l, free form, T3 population (FIG. 2)) [%] |
| --- | --- | --- | --- | --- | --- | --- | --- |
| COc1cc(C=O)ccc1O [vanillin] | 1.5-15.8 fold | reduced effect on the plankton growth | persists even after 10 days of incubation | above 1 g/l | – | – | – |
| C=CCc1ccc(O)c(OC)c1 [eugenol] | 1.2-3.2 fold | – | – | – | about 50% | ~60 | ~15 |
